Source: patent US9980982B2, “HE4 based therapy for malignant disease” (Women & Infants Hospital of Rhode Island, priority 2011, dated 2018)
“Also recorded” adds a separate entry of the source.

Tests used:
DNA = experiment: ICP-MS analysis of Cisplatin binding to DNA in cells; assay type: cell-based, Human; settings: HE4+ clones versus parental SKOV-3 cells
Protocol: A panel of stable HE4 overexpressing ovarian cancer SKOV-3 cell lines were developed by incorporation of pCMV6-HE4 vector. Inducible HE4 overexpression was achieved by pTet-Off vector (VP 16 vector). The cell viability was measured by MTS assay. Basal reactive oxygen species (ROS) production were measured by FACS analysis. In vitro Phosphoinositide-3-kinase (PI-3K) activity was measured by an immuno-precipitation PIP-3 assay. An Inductively Coupled Plasma-Mass spectrometry (IPC-MS) analysis was carried out to estimate Cisplatin binding to DNA in cells. Mitochondria, rough ER and myelin figures were examined by Electron microscopy (EM). The screening of in-house library of compounds was carried out by MTS assay.

HE4 [1] = experiment: HE4 levels in SKOV-3 cell lysates and media by sandwich ELISA; assay type: cell-based, Human; settings: cytotoxic agents, 24 hrs, serum free DMEM; versus untreated controls
Protocol: Various agents were examined by RT-PCR or by a sandwich ELISA. […] HE4 levels in cell lysates and media were evaluated by a sandwich ELISA.
Cells were grown for 24 h in 100 mm cell culture dishes (Corning, New York, N.Y.), supernatant collected and lysates of washed and scraped cells prepared as described previously (Lange T S et al., 2007Chem Biol Drug Design, 70:302-10). Total protein of lysates was quantitated (BioRad protein estimation kit, Hercules, Calif.), and HE4 levels were determined using the HE4 EIA assay (Fujirebio Diagnostics, Malvern, Pa.), a solid-phase, non-competitive immunoassay using two mouse monoclonal antibodies, directed against two epitopes in the C-WFDC domain. Calibration curves were used to measure HE4 concentrations in both cell lysates and culture media allowing for the calculation of production and secretion of HE4 in pmol/g total cellular protein.
FIG. 15 is a bar chart showing that treatment with growth factors and cytokines affect the HE4 levels in ovarian cancer cells. SKOV-3 cells (1 million each) were seeded in 100 mm dishes and incubated overnight. The cells were treated with an array of factors (IL-6, Insulin, TNFa, EGF) and incubated for another 6 hours. The media was collected and cells were lysed using the cell lysis buffer. The HE4 content in the media or in the cell-lysate was examined by a HE4 sandwich ELISA kit.

[2] = test system: HE4 overexpressing clone-1 xenograft; experiment: Cisplatin response and Kaplan-Meier analysis of animals xenografted with HE4 overexpressing clones; assay type: in vivo, nude mice; settings: cisplatin treated, within 14 days
Protocol: To ascertain the role of HE4 in the progression of ovarian cancer, the xenografts of stable HE4 overexpressing (pCMV6-HE4) clones, SKOV-3 (wild type) and the null vector clones (pCMV6) cells were raised in nude mice (strain 088, Nu/Nu). The tumor size was measured weekly.
The survival rate, tumor size, and the cisplatin or vehicle treatment response of animals xenografted with HE4 overexpressing clone-1, parental SKOV-3, and null vector clones was determined. […] Therefore, HE4 overexpression imparted chemoresistance against cisplatin treatment in animals.

[3] = test system: HE4 overexpressing SKOV-3 clones HE4C1, -C3, -C7; experiment: MTS cell viability assay, HE4 overexpressing SKOV-3 clones; assay type: cell-based, Human; settings: for response of HE4 overexpressing SKOV-3 clones to drug treatment (viability, words): 24 h, clones HE4C1, -C3, -C7, compared to parental SKOV-3
Protocol: An HE4 overexpressing vector for stable expression was engineered by inserting a coding sequence of human WAP four-disulfide core domain 2 (WFDC2) cDNA into a multiple cloning site of an eukaryotic expression vector, pCMV6-entry (Origene, Rockville, Md.). Transfection of the constructs in SKOV-3 cells was performed using Lipofectamine 2000 (Invitrogen, Carlsbad, Calif.) according to the manufacturer's instructions. Stably transfected cells were selected by resistance to G-418 (500 μg/ml) (Research Products International, Mount Prospect, Ill.), applied 48 h after transfection and continued during cell culture. G-418 resistant cells were resuspended (density 5 cells/ml) in complete medium/G-418 and seeded as 200 μl/well on a 96 well cell culture plate (Corning, New York, N.Y.). Cells growing from single colonies (cloned; stable transfection) were isolated.
(§1) Cell growth and viability of cell lines (complete medium, 24 h incubation) was determined by the CellTiter 96® AQueous One Solution Assay (Promega Corp, Madison, Wis.) following the manufacturer's recommendations with modifications (Lange T S et al., 2008 PLOS One, 3(5):e2303). Experiments are expressed as the mean of triplicate determinations (X±SD) of a representative experiment in OD (cell growth) or % of absorbance by drug-treated versus untreated cells [=100%] (cell viability). Cisplatin (CDDP), paclitaxel, doxorubicin and camptothecin (CPT) were purchased from (Sigma Aldrich, St. Louis, Mo.).
(§2) To analyze the potential biological relevance of elevated HE4 production for ovarian cancer cells the efficacy of commonly used anticancer drugs was examined in a viability assay (FIG. 5). SKOV-3 clones or parental cells were treated with cisplatin, paclitaxel, doxorubicin, or camptothecin for 24 h in various concentrations as indicated and the cytotoxicity evaluated.

PI-3K = experiment: In vitro immunoprecipitation lipid kinase (PIP-3) assay; assay type: cell-based, Human; settings: HE4 overexpressing clones, Cisplatin treatment
Protocol: FIG. 18 is a series of photographs and a schematic illustrating that HE4 regulates EGFR/PI-3K signaling in ovarian cancer cells. […] (C) Mechanistic model of HE4 overexpression induced chemoresistance against Cisplatin via activation of EGFR and PI-3K and its signaling product PIP-3.
HE4 over-expression causes deactivation of pro-survival mitochondrial proteins in SKOV-3 cells. Ovarian cancer cells (SKOV-3) (1 million) were seeded in petri dishes and allowed to adhere overnight in DMEM media supplemented with 10% Fetal Bovine serum without antibiotic. In a separate tube, HE4 cDNA was complexed with lipofectamine (Invitrogen) for 1 min-2 hrs in Optimem media (Invitrogen). HE4 cDNA Lipofectamine complex dissolved in Optimem media were added to the cells. Lipofectamine and no drug were used as control. At different time points (4 hrs, 9 hrs and 24 hr), cells were collected and lysed using lysis buffer. […] Effect of HE4 activation on PIP2-PIP3 conversion was assessed by lipid kinase assay (Yano N. et al. Biochem. J. (2009) 423 (129-143).
A panel of stable HE4 overexpressing ovarian cancer SKOV-3 cell lines were developed by incorporation of pCMV6-HE4 vector. […] The cell viability was measured by MTS assay. Basal reactive oxygen species (ROS) production were measured by FACS analysis. In vitro Phosphoinositide-3-kinase (PI-3K) activity was measured by an immuno-precipitation PIP-3 assay. […]

HE4 [4] = experiment: HE4 secretion levels in xenografted animals by EIA ELISA; assay type: in vivo, nude mice; settings: cisplatin 5 mg/kg bwt
Protocol: Because HE4 is a secretory protein, the secretion levels of HE4 were measured in animals by an EIA ELISA (Fujirebio Inc).

SKOV-3 cells = experiment: MTS cell viability assay, parental/wild-type SKOV-3 cells; assay type: cell-based, Human; settings: 24 h; paclitaxel 6.25, 12.5 or 25 nM; cisplatin 40 or 80 μM
Protocol: as §1, §2

Structure (SMILES): N.N.[Cl][Pt][Cl] [cisplatin]
- Cisplatin binding to DNA (DNA): reduced Cisplatin binding to DNA
- effect on HE4 levels in SKOV-3 (HE4 [1]): suppressed HE4 levels
- animals that reached terminal tumor size (≥14 mm) [2]: ~60%
- response of HE4 overexpressing SKOV-3 clones to drug treatment (viability, words) [3]: two clones did not respond; also recorded: significantly reduced response
- response of HE4 overexpressing SKOV-3 clones to drug treatment (viability, words) ([3]; listed as Cisplatin): significantly reduced response
- sensitivity of clone HE4C1 to cisplatin ([3]; HE4C1, only at 80 μM): minor sensitivity
- fold chemoresistance against cisplatin ([3]; HE4C1 compared to parental and null vector cells): 2-4 fold
- fold lower response / loss of efficacy / resistance of HE4 overexpressing SKOV-3 clones compared to parental SKOV-3 ([3]; cell viability assay): 20 fold
- effect on PIP-3 synthesis (PI-3K): further enhancement of PIP-3 synthesis
- HE4 levels in cisplatin treated groups versus vehicle treated animals (HE4 [4]): did not differ significantly; also recorded: not significantly different
- effect on viability of wild-type SKOV-3 cells (SKOV-3 cells): reduced the viability of wild-type SKOV-3 cells drastically
